Blank lines part the entries; values can stand above or below the molecule they belong to.
Columns and labels:
[1] = Solubility of Melperone HCl in media; assay type: physicochemical; details: for solubility: phosphate buffer, aqueous buffer
[2] = test system: psychosis in patients with PD; details: cited from earlier work
[3] = clinical; cited from earlier work
[4] = cited from earlier work
[5] = test system: psychosis associated with PD; details: initial open-label studies; cited from earlier work

- Solubility in words ([1]; aqueous buffers at acidic to neutral pH conditions): freely soluble
- Solubility in words ([1]; higher pH values (above pH=7.5)): poorly soluble
SMILES: CC1CCN(CCCC(=O)c2ccc(F)cc2)CC1 [melperone]
- time over which efficacy was maintained ([2]; mean daily dose of 37.5 mg): 2 years
- efficacy in the treatment of psychosis ([2]; patients with PD): has shown efficacy
- onset of efficacy ([2]; patients with PD): within a week
- incidence of extrapyramidal side effect (EPS) or tardive dyskinesia [3]: low incidence
- mean Tmax ([4]; oral tablet administration): 1.5 to 3.0 h
- absolute oral bioavailability ([4]; oral): 50-70%

SMILES: OCCOCCN1CCN(C2=Nc3ccccc3Sc3ccccc32)CC1 [quetiapine]
- efficacy in psychosis associated with PD [5]: has shown efficacy
- patients with worsening of motor symptoms of PD [5]: up to 30%

- solubility ([1]; pH 7.0 (phosphate)): > 100 mg/mL
- solubility ([1]; pH 7.8 (phosphate)): 25.6 mg/mL
SMILES: CC1CCN(CCCC(=O)c2ccc(F)cc2)CC1.Cl [Melperone HCl, 1-(4-fluorophenyl)-4-(4-methyl-1-piperidinyl)-1-butanone hydrochloride]

Source: US20100151021A1 (priority 2008, published 2010)
